Measured values published in US20170350889A1, “CELL IDENTIFICATION METHOD” (Centre National De La Recherche Scientifique (CNRS), priority 2014, published 2017).

Test system: macaques
Assay: Replication of the SIV virus expressing Cre recombinase after infection in macaques (viral RNA in plasma)
Type: in vivo
Details: one macaque infected, FIG. 17
Text: FIG. 17 is a graph showing the replication of the SIV virus expressing Cre recombinase evaluated by the number of copies of viral RNA/ml of plasma (y-axis) after infection in macaques, as a function of time (in days).
The dose and the route of infection are able to be modified as a function of the scientific aims of the experimentation. A method is briefly described below: • Infect the macaques intravenously (50 AID50) or mucosally (50-5000 AID50). • Monitor the viral load in kinetic conditions by quantification of the viral RNAs in the plasma of the infected animals.

## SIVmac239-Nef-IRES-Cre: SIVmac239 virus expressing Cre recombinase via Nef-IRES-Cre (SEQ ID NO: 25; plasmid SEQ ID NO: 13)
  replication dynamics (copies of viral RNA/ml of plasma over time): normal replication dynamics
